Key:
bone and bone marrow = assay: In vivo biopanning with 12-mer peptide phage display library; set-up: species or system BALB/c mice; settings: for PERCENT FREQUENCY: phage eluted from bone and bone marrow; for PHAGE SEQUENCE FREQUENCY (number of times the sequence was found in a group of plaques): phage eluted from bone and bone marrow after repeated rounds
Excerpt: The Ph.D.-12 Phage Display Peptide Library Kit (New England Biolabs, Beverly, Mass.) used in this study is based on a combinatorial library of random peptide 12-mers fused to a minor coat protein (pIII). […] The peptide is followed by a short spacer of four amino acid residues, the first three residues of which are glycine and the fourth of which is serine, and then the wild-type III sequence. The library consists of approximately 2.7×10^9 electroporated sequences, amplified once to yield approximately 55 copies of each sequence.
For in vivo biopanning, BALB/c mice 8 weeks of age were injected 3.4×10^10 pfu of phage into the heart. The animals were euthanized after 5 minutes, and the tissues (bone, bone marrow, kidney, liver, and spleen) were collected for analysis. The bound phage was eluted according the manufacturer's instructions. The eluted phage was titered, amplified, purified, and injected again at the same concentration.
The frequency of each peptide in bone and bone marrow was compared with its location in other tissues such as liver, kidney, lung, spleen, and brain. Thirteen unique peptide sequences eluted from bone and marrow were identified were identified by sequencing phage DNA. The peptides were synthesized using the polystyrene solid support on a Protein Technologies Symphony Multiple Channel Synthesizer.

[1] = test system: Unicortical femoral defects; assay: Peptide-mediated osteogenesis in cortical bone defects (Example 8); format: in vivo, Fisher 344 rats; settings: 100 mM peptide in gelfoam, two weeks postoperatively; for Effectiveness at stimulating osteogenesis and cortical bone repair: versus gelfoam+PBS
Description: In an in vivo study, all 13 peptides at a concentration of 100 mM were tested for their ability to potentiate osteogenesis. A gelfoam cylinder 1.5 mm in diameter 2 mm in length was used as carrier for the peptides. Unicortical femoral defects 1.5 mm in diameter were created bilaterally in Fisher 344 rats; the left femoral defect was filled with gelfoam+PBS (Control), and the right femur with gelfoam+peptide. The samples were harvested and examined two weeks postoperatively. To examine the effect of peptide concentration on cortical bone regeneration, peptide L7 (SEQ ID NO:5) was used at 1, 5, and 20 mM. […] The time course of cortical bone repair with 20 mM L7 was examined at 5, 10, 15, and 20 days.

[2] = test system: bone and marrow tissue sections (mouse femur, rib); assay: Biotinylated peptide binding to bone/marrow tissue sections, Avidin-FITC fluorescence
Description: Methods: Four-week old Swiss Webster mice were euthanized; the femurs were excised and decalcified in 0.25M EDTA in PBS solution for 5 days, and washed in PBS for 24 hours. The femoral shafts were obtained by cutting off the proximal and distal ends of the femur. The femoral shafts were placed in Tissue-Tek O.C.T. Compound (Sukura Finetek, Torrance, Calif.) and frozen at −20° C. overnight. Sections were cut at 10 μm serially with a cryomicrotome, rinsed with 1% BSA in PBS three times. To block non-specific reaction sections were incubated with Avidin/Biotin Blocking Kit (Vector Laboratories, Inc. Burlingame, Calif.) according to the manufacturer's instructions. Following another rinse with PBS, 150 μl 10 mM solution of each biotinylated peptide (L1, L2, L7, R1, R8) was added to the slides and incubated for 1 hour at room temperature. In negative controls, only PBS was added. After rewashes with 1% BSA, 150 μl of 1:50,000 dilution of Avidin-FITC was added to each slide and incubated overnight at 4° C.
The sections were washed with 1% BSA in PBS and mounted with Vectashield (Vector Laboratories Inc., Burlingame, Calif.). Fluorescence was visualized using a Nikon eclipse E600 microscope (Nikon, Melville, N.Y.) equipped with a 535 nm wavelength fluorescein filter. Images were obtained using a Sony DKC-5000 digital camera (Sony Electronics Inc.) and processed with Adobe Photoshop software (Adobe Systems Incorporated, San Jose, Calif.).
For localization of peptide binding to cells and tissue sections, biotinylated peptides were synthesized. Fluorescein-isothiocyanate (FITC) labeled Avidin was used to localize the peptides on cells in culture and in tissue sections in vitro by epiluminescence microscopy. In addition, the biotinylated peptides were detected at concentrations as low as 1 μM in slot blots.
Cryosections of decalcified femurs harvested from 4 week BALB/c mice were incubated with biotinylated peptide and Avidin-FITC. […] The distribution of fluorescence throughout the marrow was uneven. […] In control slides incubated with PBS without peptide, none of the cells could be detected by fluorescence (not shown). […]

[3] = test system: bovine aortic endothelial cells; assay: Effect of peptides on adherent bovine aortic endothelial cells on fibronectin or collagen; format: cell-based; settings: 0.1M biotinylated peptide, 1 hour; cells adhered four hours on fibronectin or collagen
Description: Peptides from the phage display project were added to bovine aortic endothelial cells in culture. The endothelial cells had adhered to a surface coated with collagen or with fibronectin.
Experiment 1: Bovine aortic endothelial cells were plated on glass slides that were coated either fibronectin or collagen. The cell density was 5,000 cells/well. After the cells adhered for four hours, 0.1M of biotinylated peptide was added to each well. The following peptides were used: L1, L2, L5, L6, L7, L12, L13, L14, L19, R1, R3, and R8.
To perform this experiment, the media was removed and the cells were rinsed with 1×PBS plus 1% BSA three times. Peptides were diluted in 1×PBS plus 1% BSA, added to cells and incubated for 1 hour. The cells were rinsed three times with 1% BSA in PBS, and fixed with 2% parafomaldehyde. Aldehyde groups were blocked with 0.2 M HCl-glycine in PBS, the cells were rinsed three times with 1% BSA in PBS and ExtrAvidin-FITC (1:200 dilution) was added and incubated overnight at 4° C. The cells were rinsed three times with 1% BSA in PBS. The chambers and the gasket were removed from each slide, Vectashield was added, covered and viewed on a Nikon microscope. Images were acquired using a Coolsnap digital camera and Metavue software. […]
Experiment 3: The cells were adherent for about 6 hours and peptides at various concentrations were added to the cells. The concentrations of each of the peptides used in this experiment were: 0.1M, 0.01M, 0.001M and 0.0001M biotinylated peptide. The following peptides were tested: L1, L5, L6, L7, L13, L14, R1, R3, R8, DIP1 and PBS control (SEQ ID NOs:1, 3, 4, 5, 8, 9, 11, 13, 14, and 29).

[4] = BALB/c mouse decalcified femur cryosections, biotinylated peptide and Avidin-FITC
[5] = BALB/c mouse femur cryosections, biotinylated peptide
[6] = Swiss Webster mouse decalcified femur cryosections, 10 mM biotinylated peptide, 1 hour, Avidin-FITC
[7] = Swiss Webster mouse femur cryosections, 10 mM biotinylated peptide

| Substance | PERCENT FREQUENCY (bone and bone marrow) [%] | PHAGE SEQUENCE FREQUENCY (number of times the sequence was found in a group of plaques) (bone and bone marrow) | Histological appearance of repair tissue in the defect [1] | Effectiveness at stimulating osteogenesis and cortical bone repair [1] | Fluorescence detected in femur sections incubated with peptide [2, 4] | Cell shape preferentially recognized by peptide [2, 5] | Extent of marrow cells detected by fluorescence [2, 5] | Fluorescence detected in femur sections incubated with peptide [2, 6] | Cell shape preferentially recognized by peptide [2, 7] | Extent of marrow cells detected by fluorescence [2, 7] | Effect on adherent BAEC (Experiment 1) [3] |
| --- | --- | --- | --- | --- | --- | --- | --- | --- | --- | --- | --- |
| THR-MET-ARG-ASN-PRO-ILE-THR-SER-LEU-ILE-SER-VAL-GLY-GLY-GLY-SER (TMRNPITSLISVGGGS; listed as Homo sapiens) [Peptide L1] | 28.6 | 8/28 | a considerable amount of gelfoam remaining in the defects, with thinner and more loosely organized cortical bone | least effective for cortical bone repair | Fluorescence was detected | recognized the round cells preferentially | did not detect as many cells | Fluorescence was detected | recognized the round cells preferentially | did not detect as many cells | the cells lifted and formed clusters that stained intensely |
| GLY-ILE-HIS-VAL-PRO-TRP-MET-PRO-PRO-VAL-ALA-PHE-GLY-GLY-GLY-SER (GIHVPWMPPVAFGGGS; listed as Homo sapiens) [Peptide L11] | 3.3 | 1/30 |  |  |  |  |  |  |  |  |  |
| LYS-GLU-ILE-PRO-PRO-ILE-PRO-LEU-LEU-ALA-PRO-SER-GLY-GLY-GLY-SER (KEIPPIPLLAPSGGGS; listed as Homo sapiens) [Peptide L5] | 17.9 | 5/28 | while some ossification and cortical bone regeneration has occurred, considerable amounts of gelfoam remains in the defect | virtually no stimulatory effect on osteogenesis |  |  |  |  |  |  | the cells had lifted completely and most of the cells disappeared from the surface of the slides, leaving a lot of cell debris |
| SER-SER-THR-LEU-LYS-THR-PHE-PHE-GLY-PHE-PRO-ASP-GLY-GLY-GLY-SER (SSTLKTFFGFPDGGGS; listed as Homo sapiens) [Peptide L14] | 40.0 | 12/30 | a considerable amount of gelfoam remaining in the defects, with thinner and more loosely organized cortical bone | least effective for cortical bone repair |  |  |  |  |  |  | no effect, with results similar to PBS |
| LEU-PRO-TRP-THR-GLU-PRO-SER-PHE-TRP-ARG-THR-PRO-GLY-GLY-GLY-SER (LPWTEPSFWRTPGGGS; homo sapiens) [Peptide D1P1] |  |  |  |  |  |  |  |  |  |  | no effect, with results similar to PBS |
| LEU-LEU-ALA-ASP-THR-THR-HIS-HIS-ARG-PRO-TRP-THR-GLY-GLY-GLY-SER (LLADTTHHRPWTGGGS; listed as Homo sapiens) [Peptide L2] | 32.1 | 9/28 | a considerable amount of gelfoam remaining in the defects, with thinner and more loosely organized cortical bone | least effective for cortical bone repair | Fluorescence was detected | recognized cells with mostly irregular shapes | did not detect as many cells | Fluorescence was detected | recognized cells with mostly irregular shapes | did not detect as many cells | no effect, with results similar to PBS |
| ASN-ASN-VAL-SER-GLN-LYS-TRP-GLN-GLN-ARG-LEU-ILE-GLY-GLY-GLY-SER (NNVSQKWQQRLIGGGS; listed as Homo sapiens) [Peptide L6] | 17.9 | 5/28 |  | most effective at stimulating osteogenesis and cortical bone repair |  |  |  |  |  |  | the cells had lifted completely and most of the cells disappeared from the surface of the slides, leaving a lot of cell debris |

From patent publication US7871978B2, “Bone tropic peptides” (University of Virginia Patent Foundation, priority 2004, dated 2011)
